For this experiment, the system named is kynurenine production in IFN-γ-treated KATO-III cells. The experiment in a line: Inhibitory activity on kynurenine production (Test Example 1). The format is cell-based. Conditions: Homo sapiens, IFN-γ treatment, culture for 96 hours, read-out: IC50 value, inhibition of kynurenine production. The essentials:
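Read-out is absorbance at 480 nm of medium treated with trichloroacetic acid, then p-dimethylaminobenzaldehyde, to quantify kynurenine. DMSO-only wells with and without IFN-γ serve as references. Cells were KATO-III, 2,000 per well, 96 h at 37 °C/5% CO2 with compound (DMSO ≤0.1%) and IFN-γ at 31.25 ng/mL in the added suspension.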
Consider `N#Cc1ccc(C(Oc2nc3ccccc3nc2NS(=O)(=O)c2ccccc2Cl)C(F)(F)F)cn1` (centres unmarked) [Compound 54, 2-chloro-N-{3-[2,2,2-trifluoro-1-(6-cyanopyridin-3-yl)-ethoxy]quinoxalin-2-yl}benzenesulfonamide], for which the IC50 is below 1 µM.
The same measure for `CC(C)C(Oc1nc2ccccc2nc1NS(=O)(=O)c1cccc(Cl)c1Cl)c1cccnc1` (centres unmarked) [Compound 34, 2,3-dichloro-N-{3-[2-methyl-1-(pyridin-3-yl)propoxy]-quinoxalin-2-yl}benzenesulfonamide]: below 1 µM.
For the molecule `CC(C)(C#N)C(Oc1nc2ccccc2nc1NS(=O)(=O)c1ccccc1Cl)c1cccnc1` (centres unmarked) [Compound 67, 2-chloro-N-{3-[2-cyano-2-methyl-1-(pyridin-3-yl)propoxy]-quinoxalin-2-yl}benzenesulfonamide], the IC50 was below 1 µM.
With `O=S(=O)(Nc1nc2ccccc2nc1OC(CCc1cccnc1)C(F)(F)F)c1ccccc1Cl` (centres unmarked) [Compound 172, 2-chloro-N-{3-[1,1,1-trifluoro-4-(pyridin-3-yl)butan-2-yloxy]quinoxalin-2-yl}benzenesulfonamide] the figure was below 1 µM.
With `O=S(=O)(Nc1nc2ccccc2nc1OC(c1cccnc1)C(F)(F)F)N1CCOCC1` (centres unmarked) [Compound 188, N-{3-[2,2,2-trifluoro-1-(pyridin-3-yl)ethoxy]quinoxalin-2-yl}morpholine-4-sulfonamide] the figure was below 1 µM; with `CC1(COc2nc3ccccc3nc2NS(=O)(=O)c2ccccc2Cl)COCOC1` [Compound 251, 2-chloro-N-{3-[(5-methyl-1,3-dioxan-5-yl)methoxy]-quinoxalin-2-yl}benzenesulfonamide], 1 to 10 µM.
For the molecule `CCCS(=O)(=O)Nc1nc2ccccc2nc1OC(c1ccc(CN(C)C)cc1)C(F)(F)F` (centres unmarked) [Compound 197, N-{3-[1-(4-((dimethylamino)methyl)phenyl)-2,2,2-trifluoroethoxy]quinoxalin-2-yl}propane-1-sulfonamide], the IC50 is below 1 µM.
With `C=CCS(=O)(=O)Nc1nc2ccccc2nc1OC(c1cccnc1)C(F)(F)F` (centres unmarked) [Compound 304, N-{3-[2,2,2-trifluoro-1-(pyridin-3-yl)ethoxy]quinoxalin-2-yl}-2-propene-1-sulfonamide] the figure was below 1 µM; with `O=CCCNS(=O)(=O)Nc1nc2ccccc2nc1OC(c1cccnc1)C(F)(F)F` (centres unmarked) [Compound 273, N-{3-[2,2,2-trifluoro-1-(pyridin-3-yl)ethoxy]quinoxalin-2-yl}-N′-(3-oxopropyl)-sulfuric diamide], 1 to 10 µM.
With `O=S(=O)(Nc1nc2ccccc2nc1OCc1ccc2ccccc2c1)c1ccc(C(F)(F)F)cc1` [Compound 23, 4-(trifluoromethyl)-N-{3-[(2-naphthyl)methoxy]quinoxalin-2-yl}benzenesulfonamide] the figure was below 1 µM; with `COCCCS(=O)(=O)Nc1nc2ccccc2nc1OC(c1cccnc1)C(F)(F)F` (centres unmarked) [Compound 301, 3-methoxy-N-{3-[2,2,2-trifluoro-1-(pyridin-3-yl)ethoxy]-quinoxalin-2-yl}propane-1-sulfonamide], below 1 µM; with `CCCS(=O)(=O)Nc1nc2ccccc2nc1OC(c1cccnc1)C1(F)CCOCC1` (centres unmarked) [Compound 94, N-{3-[4-fluorotetrahydropyran-4-yl(pyridin-3-yl)methoxy]-quinoxalin-2-yl}propane-1-sulfonamide], below 1 µM.
With `Cc1cc(S(=O)(=O)Nc2nc3ccccc3nc2OC(c2cccnc2)C(F)(F)F)c(C(F)(F)F)o1` (centres unmarked) [Compound 143, 5-methyl-N-{3-[2,2,2-trifluoro-1-(pyridin-3-yl)ethoxy]-quinoxalin-2-yl}-2-(trifluoromethyl)furan-3-sulfonamide] the figure was below 1 µM; with `COC(=O)C(Oc1nc2ccccc2nc1NS(=O)(=O)c1cccc(Cl)c1Cl)c1ccc(C(F)(F)F)cc1` (centres unmarked) [Compound 43, 2,3-dichloro-N-{3-{methoxycarbonyl[4-(trifluoromethyl)-phenyl]methoxy}quinoxalin-2-yl}benzenesulfonamide], below 1 µM; with `O=S(=O)(Nc1nc2cc(Cl)c(Cl)cc2nc1OC(c1cccnc1)C(F)(F)F)c1ccccc1Cl` (centres unmarked) [Compound 264, 2-chloro-N-{6,7-dichloro-3-[2,2,2-trifluoro-1-(pyridin-3-yl)ethoxy]quinoxalin-2-yl}benzenesulfonamide], below 1 µM.
`O=S(=O)(Nc1nc2ccccc2nc1OC(c1cccnc1)c1cccnc1)c1ccccc1Cl` [Compound 242, 2-chloro-N-[3-(dipyridin-3-ylmethoxy)quinoxalin-2-yl]-benzenesulfonamide]: the IC50 is below 1 µM.
With `Cc1noc(C)c1S(=O)(=O)Nc1nc2ccccc2nc1OC(c1ccc(C#N)cc1)C(F)(F)F` (centres unmarked) [Compound 201, N-{3-[1-(4-cyanophenyl)-2,2,2-trifluoroethoxy]quinoxalin-2-yl}-3,5-dimethylisoxazole-4-sulfonamide] the figure was below 1 µM; with `Cc1noc(C)c1S(=O)(=O)Nc1nc2ccccc2nc1OC(c1cccnc1)C(F)(F)F` (centres unmarked) [Compound 155, 3,5-dimethyl-N-{3-[2,2,2-trifluoro-1-(pyridin-3-yl)ethoxy]-quinoxalin-2-yl}isoxazole-4-sulfonamide], below 1 µM.
With `CCCS(=O)(=O)Nc1nc2ccccc2nc1OC(c1cncc(Cl)c1)C(F)(F)F` (centres unmarked) [Compound 335, N-{3-[2,2,2-trifluoro-1-(5-chloropyridin-3-yl)ethoxy]-quinoxalin-2-yl}propane-1-sulfonamide] the figure was below 1 µM; with `CCC(C)S(=O)(=O)Nc1nc2ccccc2nc1OC(c1cccnc1)C(F)(F)F` (centres unmarked) [Compound 187, N-{3-[2,2,2-trifluoro-1-(pyridin-3-yl)ethoxy]quinoxalin-2-yl}butane-2-sulfonamide], below 1 µM.
Turning to `Cc1ccc2nc(NS(=O)(=O)c3ccccc3Cl)c(OC(c3cccnc3)C(F)(F)F)nc2c1` (centres unmarked) [Compound 262, 2-chloro-N-{6-methyl-3-[2,2,2-trifluoro-1-(pyridin-3-yl)-ethoxy]quinoxalin-2-yl}benzenesulfonamide], the concentration for half-maximal inhibition (IC50) was below 1 µM.
The same measure for `Nc1ccccc1S(=O)(=O)Nc1nc2ccccc2nc1OC(c1cccnc1)C(F)(F)F` (centres unmarked) [Compound 157, 2-amino-N-{3-[2,2,2-trifluoro-1-(pyridin-3-yl)ethoxy]-quinoxalin-2-yl}benzenesulfonamide]: below 1 µM; for `COCOc1ccc(C(Oc2nc3ccccc3nc2NS(=O)(=O)c2ccccc2Cl)C(F)(F)F)cc1` (centres unmarked) [Compound 56, 2-chloro-N-{3-[2,2,2-trifluoro-1-(4-methoxymethoxyphenyl)-ethoxy]quinoxalin-2-yl}benzenesulfonamide]: below 1 µM.
With `O=S(=O)(Nc1nc2ccccc2nc1O[C@H](c1cccnc1)C(F)(F)F)NC1CC1` [Compound 317, (R)—N-cyclopropyl-N′-{3-[2,2,2-trifluoro-1-(pyridin-3-yl)-ethoxy]quinoxalin-2-yl}sulfuric diamide] the figure was below 1 µM.
Regarding `CN(C)S(=O)(=O)Nc1nc2ccccc2nc1OC(c1cccnc1)C(F)(F)F` (centres unmarked) [Compound 174, N-{3-[2,2,2-trifluoro-1-(pyridin-3-yl)ethoxy]quinoxalin-2-yl}-N′,N′-dimethyl-sulfuric diamide], the IC50 is below 1 µM.
Turning to `O=S(=O)(Nc1nc2ccccc2nc1OC(c1nccs1)C(F)(F)F)c1cccc(Cl)c1Cl` (centres unmarked) [Compound 99, 2,3-dichloro-N-{3-[2,2,2-trifluoro-1-(thiazol-2-yl)ethoxy]-quinoxalin-2-yl}benzenesulfonamide], the IC50 is below 1 µM.
With `O=S(=O)(Nc1nc2ccccc2nc1OCc1ccc2ccccc2c1)c1ccccc1C(F)(F)F` [Compound 21, 2-(trifluoromethyl)-N-{3-[(2-naphthyl)methoxy]quinoxalin-2-yl}benzenesulfonamide] the figure was below 1 µM; with `O=S(=O)(CC(F)(F)F)Nc1nc2ccccc2nc1OC(c1cccnc1)C(F)(F)F` (centres unmarked) [Compound 193, 2,2,2-trifluoro-N-{3-[2,2,2-trifluoro-1-(pyridin-3-yl)-ethoxy]quinoxalin-2-yl}ethanesulfonamide], below 1 µM.
The same measure for `O=S(=O)(Nc1nc2ccccc2nc1OC(c1cccnc1)C(F)(F)F)c1cc(Cl)cc(Cl)c1` (centres unmarked) [Compound 152, 3,5-dichloro-N-{3-[2,2,2-trifluoro-1-(pyridin-3-yl)ethoxy]-quinoxalin-2-yl}benzenesulfonamide]: below 1 µM.
The same measure for `COCCCNS(=O)(=O)Nc1nc2ccccc2nc1OC(c1cccnc1)C(F)(F)F` (centres unmarked) [Compound 206, N-{3-[2,2,2-trifluoro-1-(pyridin-3-yl)ethoxy]quinoxalin-2-yl}-N′-(3-methoxypropyl)-sulfuric diamide]: below 1 µM; for `CC1(COc2nc3ccccc3nc2NS(=O)(=O)c2ccccc2Cl)CCOCC1` [Compound 246, 2-chloro-N-{3-[(4-methyltetrahydro-2H-pyran-4-yl)methoxy]-quinoxalin-2-yl}benzenesulfonamide]: below 1 µM; for `COCCS(=O)(=O)Nc1nc2ccccc2nc1OC(c1cccnc1)C(F)(F)F` (centres unmarked) [Compound 300, 2-methoxy-N-{3-[2,2,2-trifluoro-1-(pyridin-3-yl)ethoxy]-quinoxalin-2-yl}ethanesulfonamide]: below 1 µM.
Turning to `O=S(=O)(Nc1nc2ccccc2nc1OC(c1cccc(F)c1)C(F)(F)F)c1ccccc1Cl` (centres unmarked) [Compound 83, 2-chloro-N-{3-[2,2,2-trifluoro-1-(3-fluorophenyl)ethoxy]-quinoxalin-2-yl}benzenesulfonamide], the IC50 was below 1 µM.
Take `O=S(=O)(Nc1nc2ccccc2nc1OCc1ccc2ccccc2c1)c1cccc(C(F)(F)F)c1` [Compound 22, 3-(trifluoromethyl)-N-{3-[(2-naphthyl)methoxy]quinoxalin-2-yl}benzenesulfonamide]: the half-maximal inhibitory concentration (IC50) was below 1 µM.
With `CCCS(=O)(=O)Nc1nc2ccccc2nc1OC(C(F)(F)F)C(F)(F)F` [Compound 322, N-{3-[(1,1,1,3,3,3-hexafluoropropan-2-yl)oxy]quinoxalin-2-yl}propane-1-sulfonamide] the figure was below 1 µM.

What is called IC50 is the midpoint of a concentration-inhibition curve.

For the origin of these results see US8673908B2, “Kynurenine production inhibitor” (Kyowa Hakko Kirin Co., Ltd., priority 2008, dated 2014).
